Assay results as given in patent publication US11618738B2, “Compound and application thereof in treating inflammation or inflammation-related diseases” (SICHUAN CENTER FOR TRANSLATIONAL MEDICINE OF TRADITIONAL …, priority 2017, dated 2023).
pIC50: −log10 of the molar value.

Key:
NO induced by LPS = assay: Inhibition of LPS-induced NO in RAW 264.7 cells (Greiss reagent); type: cell-based, mice; conditions: Mus musculus, RAW264.7; same method as Table 1; given as 10-50 μM, or <10 μM; read-out: IC50 of NO
Text: Nitric oxide (NO) is a signaling molecule that plays a key role in the pathogenesis of inflammation. Under abnormal conditions, NO is a pro-inflammatory mediator that causes inflammation due to its overproduction. Therefore, the regulation of elevated NO levels by stimulants (such as LPS) has been widely used as a screening method to identify anti-inflammatory drugs. Since NO is oxidized into nitrite and nitrate, the determination of total NO2^−/NO3^− is a conventional method for determining NO levels, and Griess reagent is usually used in this type of experiment.
This example is taken from a previous publication by Song et al.^[1]. In brief, mice RAW 264.7 cells were treated with increasing doses of each test compound at 37° C. for 1 hour. Thereafter, the cells were attacked with 20 μL/well of LPS (equivalent to a final concentration of 100 ng/mL). The cells were further incubated overnight at 37° C. A commercial ELISA assay kit obtained from R&D Systems (Minneapolis, Minn.) was used to determine the level of PGE2 in the supernatant, and three parallel experiments were performed. The optical density of each well was measured using a BioTek Epoch microplate reader (Winooski, Vt.) set to 450 nm. The NO study was performed in a similar manner, but Greiss reagent was used to monitor the level of NO, and the results were read at 550 nm.

hot plate pain in mice = assay: Hot plate pain threshold in mice; type: in vivo; conditions: for Percentage increase in pain threshold (%): mean ± SD
Protocol: The hot plate method uses a certain intensity of warm heat to stimulate mice to produce pain reaction. This experiment observes the analgesic effect of UTLOH series compounds.
Female SPF-grade Kunming mice (18-22 g/mouse) were put in a hot plate apparatus at a temperature of 55±0.5° C., and the pain threshold of the mice was measured. The measurement was performed twice, and the measurement was performed every 5 minutes. Taking the mouse licking hind feet as the observation index. The mice with pain response within 30 s were selected as experimental animals. The pre-selected qualified mice were randomly grouped according to their body weight. The blank group was intraperitoneally injected with 0.2 ml/10 g body weight of normal saline, and the other groups were intraperitoneally injected with corresponding drugs. The pain threshold was measured 30 and 60 minutes after the administration. If the mouse had no pain within 60 seconds, it was taken out immediately and calculated at 60 seconds.

[1] = tested on: xylene-induced ear swelling in mice; assay: Xylene-induced ear swelling in mice; type: in vivo; conditions: for Swelling rate (%): 20 minutes after xylene, mean ± SD
Text: Xylene applied to the ears of mice can cause acute inflammatory swelling of the ears of the mice. The anti-inflammatory effects of the tested drugs were observed by the degree of swelling of the ears of the mice after the inflammation.
Taking Kunming mice, SPF grade, half male and half […] (18-22 g/mouse) and randomly grouping them according to body weight. The normal control group was given 0.5% CMC-Na suspension by gavage administration, and the other groups were given corresponding drugs (0.2 ml/10 g) for 3 consecutive days, once a day. 0.5 h after the last administration, 0.02 ml of xylene was applied to the right auricle of each group of mice, and the left side was not applied as a control, establishing a mouse ear swelling model. 20 minutes after the inflammation, the mice were killed by cervical dislocation. Both ears were cut along the baseline of the auricle, and the discs on the same part of the left and right ears were punched out with a punch (6 mm of diameter) and weighed.

[2] = tested on: 10% egg white-induced foot swelling in rats; assay: 10% egg white-induced foot swelling in rats; type: in vivo; conditions: for Foot swelling: mean ± SD
Text: Injecting 10% egg white into rat paws can cause early acute inflammation such as redness, heat, swelling, and pain in rat paws. In this experiment, the anti-inflammatory effects of UTLOH series compounds were observed by the degree of swelling of the paws of rats after inflammation.
SPF grade SD rats, half female and half male (100-120 g/mouse) were randomly grouped according to body weight. Each group was given the corresponding drugs by gavage, once a day, for 3 consecutive days, with a gavage volume of 1 ml/100 g. Before the experiment, the ankle joint of the right hind foot of each group of rats was marked, and the foot volume of each group of rats was measured twice with a rat foot volume meter, and the average of the two times was taken as the […]. 30 minutes after the last administration, the rats in each group were given a subcutaneous needle in the right hind paw, and injected with 10% fresh egg white solution 0.1 ml/mouse to cause inflammation, establishing a rat model of paw swelling. The post-inflamed foot volume in mice was measured twice at 1 h, 2 h, 3 h, and 4 h after inflammation, and the average of the two times was taken as the post-inflamed foot volume. The normal group was given 1 ml/100 g volume of 0.5% CMC-Na solution by gavage according to body weight.

[3] = tested on: acute gouty arthritis in rats induced by sodium urate crystals; assay: Foot swelling in rats with acute gouty arthritis induced by sodium urate crystals; type: in vivo; conditions: for Foot swelling: mean ± SD
Protocol: Injecting sodium urate crystals into the joint cavity to establish an acute gouty arthritis model. Its pathological and clinical manifestations are very similar. It is a classic method commonly used in animal experiments to study gouty arthritis. This experiment will explore the effects of UTLOH series drugs on animals with acute gouty arthritis induced by sodium urate.
SPF grade SD rats, half female and half male (200-220 g/mouse), were randomly grouped by weight. The drug was administered once a day, for 3 consecutive days. […] Rats in the normal group were injected with an equal volume of sterile saline to the back of the right ankle joint. The administration was continued after modeling, once a day for 3 consecutive days. The ankle joint and foot volume of the rats in each group were measured respectively before modeling and 2 h, 4 h, 8 h, 24 h and 48 h after modeling.

In the case of `Cc1cc(C(=O)Nc2ccc(O)cc2O)no1` [UTLOH-4e], the pIC50 (NO induced by LPS) was ≥ 4.30, the “percentage increase in the pain threshold, hot plate (in words)” value (hot plate pain in mice; 25 mg/kg and 200 mg/kg, 30 minutes after administration) was “significantly reduce” and the “Percentage increase in pain threshold (%)” value (from here on “Percentage increase … (%)”) (hot plate pain in mice; 25 mg/kg intraperitoneal, 30 min after administration) was −17.71 ± 38.50 %. For the same compound, the “Percentage increase … (%)” value (hot plate pain in mice; 25 mg/kg intraperitoneal, 60 min after administration) was −2.76 ± 34.01%, the “Percentage increase … (%)” value (hot plate pain in mice; 50 mg/kg intraperitoneal, 30 min after administration) was −3.15 ± 46.73% and the “Percentage increase … (%)” value (hot plate pain in mice; 50 mg/kg intraperitoneal, 60 min after administration) was 8.36 ± 84.14%. The “Percentage increase … (%)” value (hot plate pain in mice; 100 mg/kg intraperitoneal, 30 min after administration) was 15.50 ± 103.74%, the “Percentage increase … (%)” value (hot plate pain in mice; 100 mg/kg intraperitoneal, 60 min after administration) was −11.18 ± 85.76% and the “Percentage increase … (%)” value (hot plate pain in mice; 200 mg/kg intraperitoneal, 30 min after administration) was −28.73 ± 28.36 %. For the same compound, the “Percentage increase … (%)” value (hot plate pain in mice; 200 mg/kg intraperitoneal, 60 min after administration) was −16.72 ± 40.12%, the “Swelling rate (%)” value ([1]; 6.25 mg/kg once a day for 3 days) was 53.22 ± 28.01 % and the “Swelling rate (%)” value ([1]; 12.5 mg/kg once a day for 3 days) was 42.98 ± 23.60 %. The “Swelling rate (%)” value ([1]; 25 mg/kg once a day for 3 days) was 41.29 ± 21.75 %, the “dose dependence of ear swelling rate (in words)” value ([1]; the higher the dose, the lower the ear swelling rate) was “good dose-dependent” and the “ear swelling rate versus normal group (in words)” value ([1]; the three dose groups (6.25, 12.5, 25 mg/kg)) was “significantly lower”. For the same compound, the “Foot swelling” value ([2]; 10 mg/kg gavage once a day for 3 days, 1 h after inflammation) was 0.67 ± 0.15 mL, the “Foot swelling” value ([2]; 10 mg/kg gavage once a day for 3 days, 2 h after inflammation) was 0.66 ± 0.15 mL and the “Foot swelling” value ([2]; 10 mg/kg gavage once a day for 3 days, 3 h after inflammation) was 0.60 ± 0.16 mL. The “Foot swelling” value ([2]; 10 mg/kg gavage once a day for 3 days, 4 h after inflammation) was 0.44 ± 0.07 mL, the “Foot swelling” value ([2]; 20 mg/kg gavage once a day for 3 days, 1 h after inflammation) was 0.69 ± 0.08 mL and the “Foot swelling” value ([2]; 20 mg/kg gavage once a day for 3 days, 2 h after inflammation) was 0.55 ± 0.13 mL. For the same compound, the “Foot swelling” value ([2]; 20 mg/kg gavage once a day for 3 days, 3 h after inflammation) was 0.51 ± 0.09 mL, the “Foot swelling” value ([2]; 20 mg/kg gavage once a day for 3 days, 4 h after inflammation) was 0.38 ± 0.12 mL and the “Foot swelling” value ([2]; 40 mg/kg gavage once a day for 3 days, 1 h after inflammation) was 0.69 ± 0.13 mL. For the same compound, the “Foot swelling” value ([2]; 40 mg/kg gavage once a day for 3 days, 2 h after inflammation) was 0.57 ± 0.17 mL, the “Foot swelling” value ([2]; 40 mg/kg gavage once a day for 3 days, 3 h after inflammation) was 0.49 ± 0.15 mL and the “Foot swelling” value ([2]; 40 mg/kg gavage once a day for 3 days, 4 h after inflammation) was 0.45 ± 0.16 mL. For the same compound, the “foot swelling degree compared with the normal group (in words)” value ([2]; low-dose group, 1 h after inflammation) was “significantly reduced”, the “foot swelling degree compared with the normal group (in words)” value ([2]; medium-dose group and high-dose group, 1 h, 2 h and 3 h after inflammation) was “significantly reduced” and the “Foot swelling” value ([3]; 10 mg/kg once a day, 2 h after modeling) was 0.28 ± 0.09 mL. For the same compound, the “Foot swelling” value ([3]; 10 mg/kg once a day, 4 h after modeling) was 0.34 ± 0.07 mL, the “Foot swelling” value ([3]; 10 mg/kg once a day, 8 h after modeling) was 0.33 ± 0.11 mL and the “Foot swelling” value ([3]; 10 mg/kg once a day, 24 h after modeling) was 0.22 ± 0.12 mL. The “Foot swelling” value ([3]; 10 mg/kg once a day, 48 h after modeling) was 0.05 ± 0.07 mL, the “Foot swelling” value ([3]; 20 mg/kg once a day, 2 h after modeling) was 0.18 ± 0.07 mL and the “Foot swelling” value ([3]; 20 mg/kg once a day, 4 h after modeling) was 0.24 ± 0.06 mL. For the same compound, the “Foot swelling” value ([3]; 20 mg/kg once a day, 8 h after modeling) was 0.19 ± 0.07 mL, the “Foot swelling” value ([3]; 20 mg/kg once a day, 24 h after modeling) was 0.19 ± 0.12 mL and the “Foot swelling” value ([3]; 20 mg/kg once a day, 48 h after modeling) was 0.09 ± 0.08 mL. For the same compound, the “Foot swelling” value ([3]; 40 mg/kg once a day, 2 h after modeling) was 0.20 ± 0.08 mL, the “Foot swelling” value ([3]; 40 mg/kg once a day, 4 h after modeling) was 0.25 ± 0.05 mL and the “Foot swelling” value ([3]; 40 mg/kg once a day, 8 h after modeling) was 0.19 ± 0.10 mL. The “Foot swelling” value ([3]; 40 mg/kg once a day, 24 h after modeling) was 0.22 ± 0.07 mL, the “Foot swelling” value ([3]; 40 mg/kg once a day, 48 h after modeling) was 0.09 ± 0.12 mL and the “foot volume compared with the model group (in words)” value ([3]; medium- and high-dose groups, 2 h, 4 h, 8 h, 24 h and 48 h after injection of sodium urate crystals) was “significantly reduce”.
